Results as given in patent US20240025880A1 (CHIESI FARMACEUTICI S.P.A., priority 2020, published 2024).
Where two headings read alike, the source gives them in different places.

Target: T1, h P2X3 (Homo sapiens, UniProt P56373)
T1 sequence (P56373 1-397): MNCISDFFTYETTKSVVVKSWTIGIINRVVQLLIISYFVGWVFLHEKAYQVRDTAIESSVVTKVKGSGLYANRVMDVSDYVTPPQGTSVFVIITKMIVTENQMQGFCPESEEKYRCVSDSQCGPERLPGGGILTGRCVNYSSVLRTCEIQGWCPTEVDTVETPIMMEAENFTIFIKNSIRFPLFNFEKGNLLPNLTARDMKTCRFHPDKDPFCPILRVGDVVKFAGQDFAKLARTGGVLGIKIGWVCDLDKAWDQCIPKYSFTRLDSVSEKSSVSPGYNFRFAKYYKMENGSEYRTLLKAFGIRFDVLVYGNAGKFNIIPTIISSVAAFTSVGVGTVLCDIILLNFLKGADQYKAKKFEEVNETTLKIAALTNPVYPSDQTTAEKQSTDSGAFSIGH
Test: In vitro electrophysiology assay for P2X3 (automated whole-cell patch clamp, α,β-MeATP agonist)
Format: cell-based
Procedure: In Vitro Electrophysiology Assay for P2X3
Cells expressing P2X3 receptors were grown according to standard practice and maintained at 37° C. in a 5% humidified CO2 atmosphere. The cells were seeded into T175 flask 2 days prior to the day of the assay and dissociated from the flasks using TrypLE when grown to confluence of 80-90%. The dissociated cells were resuspended in serum free media at a cell density of 3×10^6 cells/ml and loaded onto the Sophion Qube automated patch-clamp system. The extracellular assay buffer contained 145 mM NaCl, 4 mM KCl, 2 mM CaCl2, 1 mM MgCl2, 10 mM HEPES, and 10 mM glucose at pH 7.4. The intracellular assay solution contained 140 mM CsF, 10 mM NaCl, 10 mM EGTA, 10 mM HEPES at pH 7.2. Agonist stock solutions were prepared in H2O and diluted in bath solution prior to use. All antagonists were prepared as 10 mM stock solutions in DMSO and diluted in bath solution prior to use. All experiments were performed under the whole-cell patch clamp configuration at room temperature with 384 individual cells being voltage clamped at −60 mV simultaneously on the Sophion Qube instrument. Two baseline responses were established with the application of α,β-MeATP (800 nM), with the subsequent agonist applications being washed out using extracellular assay buffer containing 0.5 U/ml apyrase. Following the second agonist application, antagonist was incubated in the absence of α,β-MeATP for 10 minutes. After antagonist preincubation, 800 nM α,β-MeATP and antagonist were co-administered to determine the inhibitory effect of the antagonist. One concentration of an antagonist was assessed against a single cell, with different concentrations of the antagonist applied to other cells on the 384 recording substrate. The control P2X3 current amplitude was taken from the peak current amplitude from the second agonist response prior to preincubation with antagonist. The peak P2X3 current amplitude in the presence of antagonist was used to calculate the inhibitory effect at each concentration of the antagonist according to the following equation:
Percentage inhibition of P2X3=(P2X3 control peak amplitude−P2X3 antagonist peak amplitude)/P2X3 control peak amplitude)*100
Concentration-response curves were constructed from ten different concentrations with each concentration of antagonist tested on at least two individual cells. The concentration of the antagonist to inhibit P2X3 current by 50% (IC50) was determined by fitting the data with the following equation:
Y=a+[(b−a)/(1+10^((log c−x)d)]
Where ‘a’ is minimum response, ‘b’ is maximum response, ‘c’ is IC50 and ‘d’ is Hill slope.

[1] = Table 2, 800 nM α,β-MeATP, peak current, read-out: h P2X3 (pIC50 range of activity) (converted)

C[C@@H](Nc1ncnc2c(OCC(=O)NS(=O)(=O)c3ccccc3)cc(-c3ccc(F)cc3)cc12)c1cnc(C(F)(F)F)nc1 [Example 40, (R)-2-((6-(4-fluorophenyl)-4-((1-(2-(trifluoromethyl)pyrimidin-5-yl)ethyl)amino)quinazolin-8-yl)oxy)-N-(phenylsulfonyl)acetamide]
IC50 [1]: < 316 nM

C[C@@H](Nc1ncnc2c(OCC3(C(=O)O)CC3)cc(-c3ccc(F)cc3)cc12)c1cnc(C(F)(F)F)nc1 [Example 41, (R)-1-(((6-(4-fluorophenyl)-4-((1-(2-(trifluoromethyl)pyrimidin-5-yl)ethyl)amino)quinazolin-8-yl)oxy)methyl)cyclopropane-1-carboxylic acid]
IC50 [1]: 316 to 3160 nM

C[C@@H](Nc1ncnc2c(OCC(=O)NC3(C(=O)O)CC3)cc(-c3ccc(F)cc3)cc12)c1cnc(C(F)(F)F)nc1 [Example 44, (R)-1-(2-((6-(4-fluorophenyl)-4-((1-(2-(trifluoromethyl)pyrimidin-5-yl)ethyl)amino)quinazolin-8-yl)oxy)acetamido)cyclopropane-1-carboxylic acid]
IC50 [1]: 316 to 3160 nM

Cc1ccc(CNc2ncnc3c(OCC(=O)N[C@H]4CCC[C@H]4C(=O)O)cc(-c4ccc(F)cc4)cc23)nn1 [Example 45, (1R,2S)-2-(2-((6-(4-fluorophenyl)-4-(((6-methylpyridazin-3-yl)methyl)amino)quinazolin-8-yl)oxy)acetamido)cyclopentane-1-carboxylic acid]
IC50 [1]: < 316 nM

CCOC(=O)[C@H]1CCC[C@H]1NC(=O)COc1cc(-c2ccc(F)cc2)cc2c(NCc3ccc(C)nn3)ncnc12 [Example 46, Ethyl (1S,2R)-2-(2-((6-(4-fluorophenyl)-4-(((6-methylpyridazin-3-yl)methyl)amino)quinazolin-8-yl)oxy)acetamido)cyclopentane-1-carboxylate]
IC50 [1]: 316 to 3160 nM

C[C@@H](Nc1ncnc2c(OCC3(C(=O)O)CCCCC3)cc(-c3ccc(F)cc3)cc12)c1cnc(C(F)(F)F)nc1 [Example 48, (R)-1-(((6-(4-fluorophenyl)-4-((1-(2-(trifluoromethyl)pyrimidin-5-yl)ethyl)amino)quinazolin-8-yl)oxy)methyl)cyclohexane-1-carboxylic acid]
IC50 [1]: 316 to 3160 nM

Cc1cnc(-c2cc(OCC(=O)NS(=O)(=O)c3ccccc3)c3ncnc(NCc4ccc(C)nn4)c3c2)nc1 [Example 49, Ammonium (2-((4-(((6-methylpyridazin-3-yl)methyl)amino)-6-(5-methylpyrimidin-2-yl)quinazolin-8-yl)oxy)acetyl)(phenylsulfonyl) amide]
IC50 [1]: < 316 nM

Cc1ccc(CNc2ncnc3c(OCC4(C)COC4)cc(-c4ccc(F)cc4)cc23)nn1 [Example 50, 6-(4-fluorophenyl)-8-[(3-methyloxetan-3-yl)methoxy]-N-[(6-methylpyridazin-3-yl)methyl]quinazolin-4-amine]
IC50 [1]: < 316 nM

Cc1ccc(CNc2ncnc3c(OCC4(C(F)(F)F)CC4)cc(-c4ccc(F)cc4)cc23)nn1 [Example 51, 6-(4-fluorophenyl)-N-[(6-methylpyridazin-3-yl)methyl]-8-[[1-(trifluoromethyl)cyclopropyl]methoxy]quinazolin-4-amine]
IC50 [1]: 316 to 3160 nM

Cc1ccc(CNc2ncnc3c(OC4CN(C(=O)OC(C)(C)C)C4)cc(-c4ccc(F)cc4)cc23)nn1 [Example 52, tert-butyl 3-[6-(4-fluorophenyl)-4-[(6-methylpyridazin-3-yl)methylamino]quinazolin-8-yl]oxyazetidine-1-carboxylate]
IC50 [1]: 316 to 3160 nM

Cc1ccc(CNc2ncnc3c(OCC#N)cc(-c4ccc(F)cc4)cc23)nn1 [Example 53]
IC50 [1]: < 316 nM

CON(C)C(=O)COc1cc(-c2ccc(F)cc2)cc2c(NCc3ccc(C)nn3)ncnc12 [Example 54, 2-[6-(4-fluorophenyl)-4-[(6-methylpyridazin-3-yl)methylamino]quinazolin-8-yl]oxy-N-methoxy-N-methyl-acetamide]
IC50 [1]: < 316 nM

Cc1ccc(CNc2ncnc3c(OCCOCCO)cc(-c4ccc(F)cc4)cc23)nn1 [Example 55]
IC50 [1]: < 316 nM

Cc1ccc(CNc2ncnc3c(OC4CCN(C)C4=O)cc(-c4ccc(F)cc4)cc23)nn1 (stereo not drawn) [Example 56, 3-[6-(4-fluorophenyl)-4-[(6-methylpyridazin-3-yl)methylamino]quinazolin-8-yl]oxy-1-methyl-pyrrolidin-2-one]
IC50 [1]: 316 to 3160 nM

Cc1ccc(CNc2ncnc3c(OCc4ncco4)cc(-c4ccc(F)cc4)cc23)nn1 [Example 57, 6-(4-fluorophenyl)-N-[(6-methylpyridazin-3-yl)methyl]-8-(oxazol-2-ylmethoxy)quinazolin-4-amine]
IC50 [1]: < 316 nM

Cc1ccc(CNc2ncnc3c(OCc4noc(C)n4)cc(-c4ccc(F)cc4)cc23)nn1 [Example 58, 6-(4-fluorophenyl)-8-[(5-methyl-1,2,4-oxadiazol-3-yl)methoxy]-N-[(6-methylpyridazin-3-yl)methyl]quinazolin-4-amine]
IC50 [1]: < 316 nM

CCc1noc(COc2cc(-c3ccc(F)cc3)cc3c(NCc4ccc(C)nn4)ncnc23)n1 [Example 59, 8-[(3-ethyl-1,2,4-oxadiazol-5-yl)methoxy]-6-(4-fluorophenyl)-N-[(6-methylpyridazin-3-yl)methyl]quinazolin-4-amine]
IC50 [1]: < 316 nM

Cc1ccc(CNc2ncnc3c(OCc4nnc(C5CC5)s4)cc(-c4ccc(F)cc4)cc23)nn1 [Example 60, 8-[(5-cyclopropyl-1,3,4-thiadiazol-2-yl)methoxy]-6-(4-fluorophenyl)-N-[(6-methylpyridazin-3-yl)methyl]quinazolin-4-amine]
IC50 [1]: < 316 nM

Cc1ccc(CNc2ncnc3c(OCC(=O)NCC(F)(F)F)cc(-c4ccc(F)cc4)cc23)nn1 [Example 61, 2-[6-(4-fluorophenyl)-4-[(6-methylpyridazin-3-yl)methylamino]quinazolin-8-yl]oxy-N-(2,2,2-trifluoroethyl)acetamide]
IC50 [1]: 316 to 3160 nM

Cc1ccc(CNc2ncnc3c(OC4COC4)cc(-c4ccc(F)cc4)cc23)nn1 [Example 63, 6-(4-fluorophenyl)-N-((6-methylpyridazin-3-yl)methyl)-8-(oxetan-3-yloxy)quinazolin-4-amine]
IC50 [1]: 316 to 3160 nM

COC(=O)N1CCC(COc2cc(-c3ccc(F)cc3)cc3c(NCc4ccc(C)nn4)ncnc23)CC1 [Example 64, Methyl 4-[[6-(4-fluorophenyl)-4-[(6-methylpyridazin-3-yl)methylamino]quinazolin-8-yl]oxymethyl]piperidine-1-carboxylate]
IC50 [1]: 316 to 3160 nM

COC(=O)N1CCCC(COc2cc(-c3ccc(F)cc3)cc3c(NCc4ccc(C)nn4)ncnc23)C1 (stereo not drawn) [Example 66, Methyl 3-[6-(4-fluorophenyl)-4-[(6-methylpyridazin-3-yl)methylamino]quinazolin-8-yl]oxymethyl]piperidine-1-carboxylate]
IC50 [1]: 316 to 3160 nM

COC(=O)N1CCC(COc2cc(-c3ccc(F)cc3)cc3c(NCc4ccc(C)nn4)ncnc23)C1 (stereo not drawn) [Example 67, Methyl 3-[[6-(4-fluorophenyl)-4-[(6-methylpyridazin-3-yl)methylamino]quinazolin-8-yl]oxymethyl]pyrrolidine-1-carboxylate]
IC50 [1]: 316 to 3160 nM

O=C(NC1CCOc2ccc(-c3ccc(F)cc3)cc21)c1cnc(C(F)(F)F)nc1 (stereo not drawn) [comparative Example A, N-(6-(4-fluorophenyl)chroman-4-yl)-2-(trifluoromethyl)pyrimidine-5-carboxamide, reference compound]
IC50 (comparative example, read-out: activity on receptor P2X3 expressed as pIC50 (converted)): > 31600 nM
